In assay [1] the test system is SH-SY5Y neuroblastoma cells. As to the kind of experiment: sAPPα formation/release in SH-SY5Y cells (6E10 western blot, densitometry). Conditions: Bryostatin-1 alone. It counts as cell-based. Here is the method: Cells were treated with RA, Bryostatin-1 (10^−9M)+RA, Bryostatin-1 (10^−10M) RA+Bryostatin-1 (10^−10M) for 3 h. Representative western blots show sAPPα recovered from culture medium.

Another assay has as its system ADAM10. Briefly: ADAM10 (alpha-secretase) expression in SH-SY5Y cells. Type of assay: cell-based. Conditions: each agent alone or in combination. The source says:
Therefore, Bryostatin-1 may increase a-secretase processing through 2 independent mechanisms: (i) activation of PKCs which stimulate secretase; and (ii) increased expression of a-secretase.

Assay [2] deals with Mouse strain B6C3-Tg carrying mutant Swedish Amyloid precursor protein (sweAPP) and PSI (presenilin-l) genes. As to the kind of experiment: Water maze studies in Alzheimer's disease mouse model. Type of assay: in vivo. The source says:
Mouse strain B6C3-Tg carrying mutant Swedish Amyloid precursor protein (sweAPP) and PSI (presenilin-l) genes associated with early onset Alzheimer's disease were subjected to water maze tests at 5-6 months of age.

Another assay concerns prostate cancer cells. The conditions noted are these: by modulating PKC delta translocation and preventing TNF-alpha release; cited from earlier work.

Consider `CCC/C=C/C=C/C(=O)O[C@H]1/C(=C/C(=O)OC)C[C@H]2C[C@H]([C@@H](C)O)OC(=O)C[C@H](O)C[C@@H]3C[C@H](OC(C)=O)C(C)(C)[C@](O)(C[C@@H]4C/C(=C/C(=O)OC)C[C@H](/C=C/C(C)(C)[C@]1(O)O2)O4)O3` [Bryostatin-1], for which the sAPPα formation result in assay [1] (10^−9M, SH-SY5Y cells) was “increased”. Also, the “sAPPα recovered from culture medium” value in assay [1] (10^−10M, 3 h, SH-SY5Y cells, vs control) is “significantly increased”. The activity of alpha-secretase result in assay [1] (SH-SY5Y neuroblastoma cells) is “potently stimulate”. The “expression of ADAM10 (the major form of alpha-secretase)” value in the assay with ADAM10 is reported as “significantly increase”. For the same compound, in assay [2] (5 micrograms/mouse on alternative days orally in an oil formulation, mice 5-6 months of age, vs control animals), the “protection against Alzheimer's disease mediated memory loss (water maze)” value is reported as “significant protection”. Further, the “memory and cognition in AD model” value in assay [2] (mouse, in vivo) was “enhance memory and cognition”. Also, the phorbol ester-induced apoptosis entry with prostate cancer cells is “inhibits”.

The values are drawn from patent publication US20220142934A1, “COMBINATION THERAPEUTICS AND METHODS FOR THE TREATMENT OF NEURODEGENERATIVE AND OTHER DISEASES” (Aphios Corporation, priority 2020, published 2022).
